Measured values published in PMC9161616, “A first-in-human phase 1/2 study of FGF401 and combination of FGF401 with spartalizumab in patients with hepatocellular carcinoma or biomarker-selected solid tumors” (Journal of Experimental & Clinical Cancer Research : CR, 2022).
Read-outs that look alike come from different tables or passages of the source.

What was measured:
patients with HCC = system: patients with HCC; set-up: method as in PMID 31575541; details: cited from earlier work
[1] = system: patients with HCC and intrahepatic cholangiocarcinoma; set-up: method as in doi:10.1200/JCO.2019.37.15_suppl.4095, doi:10.1200/JCO.2021.39.15_suppl.4090; details: cited from earlier work
[2] = Pharmacokinetics of spartalizumab in combination arm; assay type: in vivo, human; details: for AUC0-504h / AUClast / Cmax / Tmax: Cycle 1 day 1; for AUC0-504h / AUClast / Cmax: geometric mean (CV%); for Tmax: median [min, max]
Method: (§1) Pharmacokinetic endpoints included plasma concentrations and PK parameters of FGF401 and spartalizumab. Pharmacokinetic parameters were determined with noncompartmental method(s) using Phoenix WinNonlin version 6.4 or above (Pharsight Corporation, Mountain View, Califormia, USA). Immunogenicity of spartalizumab was assessed through presence and/or concentration of anti-drug (spartalizumab) antibodies (ADA). Food effect on FGF401 exposure was evaluated through plasma concentration of FGF401 and relevant PK parameters when dosing under fed condition. Safety of the food effect was assessed through incidence and severity of AEs and serious AEs (SAEs), including changes in laboratory values, vital signs, and ECGs when dosing under fed condition.
The PK analyses and summary statistics were based on pharmacokinetic analysis set. Individual as well as mean concentration-time profiles were constructed using concentration data for spartalizumab and FGF401. Descriptive statistics for PK parameters included mean, standard deviation, coefficient of variation (CV%) mean, geometric mean, median, minimum, and maximum, with only the latter 3 for time to reach maximum concentration (Tmax) and additional 90% CI for accumulation ratio (Racc). Zero concentrations were not included in the geometric mean calculations. Missing concentrations or PK parameter values were not imputed.

[3] = Immunogenicity of spartalizumab (anti-drug antibodies); assay type: in vivo, human
Method: as §1

[4] = HCC patients with > 2 prior lines of therapy, qd schedule
[5] = spartalizumab 300 mg with FGF401 80 mg, n=6
[6] = spartalizumab 300 mg with FGF401 120 mg, n=6

## C=CC(=O)N[C@H]1CCOC[C@H]1Nc1ncc2cc(-c3c(Cl)c(OC)cc(OC)c3Cl)ccc2n1 [BLU-554, fisogatinib]
Patients with HCC; FGF19-negative patients
  ORR: 0%
Patients with HCC; FGF19-positive patients, 95% CI: 3.7-not reached
  median duration of response: 5.3 months
Patients with HCC; FGF19-positive patients
  ORR: 17%
Patients with HCC
  Treatment discontinuation due to AE: 12%
Patients with HCC; most common transaminase elevation
  Grade ≥ 3 TRAEs: 43%
Patients with HCC; qd
  treatment related AE: diarrhea: 74%
  treatment related AE: nausea: 42%
  treatment related AE: vomiting: 35%

## C=CC(=O)Nc1cc(N2CCN(CC)CC2)ccc1Nc1cc(N(C)C(=O)Nc2c(Cl)c(OC)cc(OC)c2Cl)ncn1 [H3B-6527]
[1]; HCC and intrahepatic cholangiocarcinoma, qd dosing
  drug discontinuation due to AEs: 8.3%
[1]; HCC and intrahepatic cholangiocarcinoma
  Grade 3 TEAE: 12.5%
[1]; [4]
  OS: 10.6 months
  PFS: 4.1 months
[1]; all PR, HCC patients with > 2 prior lines of therapy, qd schedule
  ORR: 16.7%
[1]; responders + durable SD > 17 weeks, HCC, qd schedule
  clinical benefit rate: 45.8%

## spartalizumab: humanized immunoglobulin G4κ monoclonal antibody that binds PD-1 and blocks its interaction with PD-L1/PD-L2
[2]; spartalizumab 300 mg with FGF401 80 mg, n=3
  AUC0-504h: 760 (1.9) day*µg/mL
[2]; [5]
  AUClast: 795 (34.5) day*µg/mL
  Cmax: 74.7 µg/mL
  Tmax: 1.58 [1.5-161] h
[2]; [6]
  AUC0-504h: 967 (13.9) day*µg/mL
  AUClast: 978 (15.8) day*µg/mL
  Cmax: 87.7 µg/mL
  Tmax: 1.5 [1.43-1.5] h
[2]; compared with refs 25, 30
  spartalizumab exposures in combination versus similar studies with 300 mg q3w: might be comparable
[2]; spartalizumab in combination with 80 mg FGF401
  geo-mean AUClast: 795 µg·days/mL
[2]; spartalizumab in combination with 120 mg FGF401
  geo-mean AUClast: 978 µg·days/mL
[3]; One of 12 patients, C2D1 and C3D1 predose
  patients positive for treatment-induced ADA for spartalizumab: 8.3%
[3]; one ADA-positive patient
  ADA titers: low to moderate
  influence of ADA on PK profiles: did not appear to influence the PK profiles
